Measured values from patent US20250034166A1, “POLYCYCLIC FUSED RING DERIVATIVES AND USE THEREOF” (Jacobio Pharmaceuticals Co., Ltd., priority 2021, published 2025).
Read-outs that look alike come from different tables or passages of the source.

Assays:
[1] = tested on: AsPC-1 cells (K-Ras G12D); assay: 2D cell growth inhibition assay (CellTiter-Glo); type: cell-based; conditions: Homo sapiens, ASPC1, AsPC-1 (G12D), 6 days, absolute IC50
Method: (§1) The cell growth inhibition activity of each of compounds was tested by performing cell growth inhibition assays on a variety of K-Ras mutant and K-Ras WT cell lines indicated in Table 14.
(§2) Each of cells in culture medium was plated in TC-treated 96-well plates at a density indicated in Table 14 and incubated in a cell incubator overnight. The next day, each of compounds was diluted in culture medium and added to the plates. After 6 days incubation in cell incubator, the cell viability was detected by CellTiter-Glo® Cell Viability Assay kit (Promega).

SW620 cells (K-Ras G12V) [2] = assay: 2D cell growth inhibition assay (CellTiter-Glo); type: cell-based; conditions: Homo sapiens, SW-620, 6 days, absolute IC50
Method: as §1, §2

AGS cells (K-Ras G12D) [3] = assay: 2D cell growth inhibition assay (CellTiter-Glo); type: cell-based; conditions: Homo sapiens, 6 days, absolute IC50
Method: as §1, §2

SW620 cells (K-Ras G12V) [4] = assay: Phospho-ERK1/2(THR202/TYR204) HTRF assay; type: cell-based; conditions: Homo sapiens, SW-620, 2 hours incubation, read-out: p-ERK, IC50 SW620
Method: (§3) p-ERK (MAPK pathway) inhibition activity of each of compounds in a variety of K-Ras mutant and K-Ras WT cell lines indicated in Table 12 was evaluated. MKN-1 with K-Ras WT amplification is also a K-Ras dependent cell line.
(§4) Each of cells in culture medium was seeded in 96-well plates at density indicated in Table 16 and then put in a cell incubator to incubate overnight. The next day, the culture medium was removed and the compound diluted in assay medium was added in each well. After 2 hours incubation in a cell incubator, the assay medium in 96-well plates was removed, then 50 μL of 1× blocking reagent-supplemented lysis buffer (Cisbio) was added and the plates were incubated at 25° C. for 45 min with shaking. 10 μL of cell lysates from the 96-well plates were transferred to a 384-well plate (Greiner) containing […] HTRF® pre-mixed antibodies (Cisbio 64AERPEH). The plate was incubated 4 hours at 25° C. and then read HTRF signals on Tecan Spark multimode microplate reader. The data were analyzed using a 4-parameter logistic model to calculate IC50 values.

AGS cells (K-Ras G12D) [5] = assay: Phospho-ERK1/2(THR202/TYR204) HTRF assay; type: cell-based; conditions: Homo sapiens, 2 hours incubation, read-out: p-ERK, IC50 AGS
Method: as §3, §4

K-Ras G12V [6] = target: T1, K-Ras G12V (Homo sapiens, UniProt P01116, G12V); assay: biochemical
K-Ras G12D [7] = target: T2, K-Ras G12D (Homo sapiens, UniProt P01116, G12D); assay: biochemical
K-Ras G12D [8] = target: T2, K-Ras G12D; assay: biochemical; remark: listed apart in the source
K-Ras G12V [9] = target: T1, K-Ras G12V; assay: biochemical; remark: listed apart in the source

T1 sequence (P01116 1-169 isoform P01116-2 G12V): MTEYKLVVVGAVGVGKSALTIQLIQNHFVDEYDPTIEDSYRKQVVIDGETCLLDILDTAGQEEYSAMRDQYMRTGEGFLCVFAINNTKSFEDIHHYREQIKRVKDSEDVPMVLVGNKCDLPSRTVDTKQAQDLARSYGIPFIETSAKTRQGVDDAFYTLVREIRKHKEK
T2 sequence (P01116 1-169 isoform P01116-2 G12D): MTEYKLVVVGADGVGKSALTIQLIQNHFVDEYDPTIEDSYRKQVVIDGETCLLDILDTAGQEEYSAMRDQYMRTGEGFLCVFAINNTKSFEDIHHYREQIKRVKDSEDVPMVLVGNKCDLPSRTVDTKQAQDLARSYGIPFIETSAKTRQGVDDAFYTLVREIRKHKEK

| Structure (SMILES) | IC50 [1] | IC50 (SW620 cells (K-Ras G12V) [2]) | IC50 (AGS cells (K-Ras G12D) [3]) | IC50 (SW620 cells (K-Ras G12V) [4]) | IC50 (AGS cells (K-Ras G12D) [5]) | IC50 (K-Ras G12V [6]) | IC50 (K-Ras G12D [7]) | IC50 (K-Ras G12D [8]) | IC50 (K-Ras G12V [9]) |
| --- | --- | --- | --- | --- | --- | --- | --- | --- | --- |
| C#Cc1c(F)ccc2cc(O)cc(-c3nc4c5c(nc(OC[C@@]67CCCN6C[C@H](F)C7)nc5c3F)N3CCCOCC3CO4)c12 (some centres unmarked) [Compound 3] | 19.6 nM | 3.32 nM | 1.73 nM | 4.61 nM | 2.02 nM | – | – | – | – |
| C#Cc1c(F)ccc2cc(O)cc(-c3nc4c5c(nc(OC[C@@]67CCCN6C[C@H](F)C7)nc5c3F)N3CCCCCC3CO4)c12 (some centres unmarked) [Compound 22] | 15.6 nM | 1.32 nM | 2.59 nM | 3.05 nM | 1.38 nM | – | – | – | – |
| C#Cc1c(F)ccc2cc(O)cc(-c3nc4c5c(nc(OC[C@@]67CCCN6C[C@H](F)C7)nc5c3F)N3CCCOC[C@@H]3CO4)c12 [Compound 6] | 80.1 nM | 5.61 nM | 7.57 nM | 10 nM | 1.5 nM | – | – | – | – |
| C#Cc1c(F)ccc2cc(O)cc(-c3nc4c5c(nc(OC[C@@]67CCCN6C[C@H](F)C7)nc5c3F)N3CCCCC3CO4)c12 (some centres unmarked) [Compound 19] | – | – | – | 5.13 nM | 2.32 nM | – | – | – | – |
| C#Cc1c(F)ccc2cc(O)cc(-c3nc4c5c(nc(OCC67CCCN6CC(F)C7)nc5c3F)N3CCOCCC3CO4)c12 (centres unmarked) [Compound 2] | 134 nM | 13.1 nM | 5.07 nM | 5.2 nM | 2.33 nM | – | – | – | – |
| C#Cc1c(F)ccc2cc(O)cc(-c3nc4c5c(nc(OC[C@@]67CCCN6C[C@H](F)C7)nc5c3F)N3CCCCC3CCO4)c12 (some centres unmarked) [Compound 23] | – | – | – | 50.1 nM | 23 nM | – | – | – | – |
| CCc1c(F)ccc2cc(O)cc(-c3nc4c5c(nc(OC[C@@]67CCCN6C[C@H](F)C7)nc5c3F)N3CCOCC3CO4)c12 (some centres unmarked) [Compound 14] | 702 nM | 23.9 nM | 105 nM | 42.3 nM | 39.4 nM | – | – | – | – |
| C#Cc1c(F)ccc2cc(O)cc(-c3nc4c5c(nc(OC[C@@]67CCCN6C[C@H](F)C7)nc5c3F)N3C5COCCC3(CO4)C5)c12 (some centres unmarked) [Compound 16] | – | – | – | – | – | > 1000 nM | 57.4 nM | > 1000 nM | 43.5 nM |
| C#Cc1c(F)ccc2cc(O)cc(-c3nc4c5c(nc(OC[C@@]67CCCN6C[C@H](F)C7)nc5c3F)N3CCCC3CO4)c12 (some centres unmarked) [Compound 21] | 547 nM | 35.1 nM | 99 nM | 60.6 nM | 19.7 nM | – | – | – | – |
| CCc1c(F)ccc2cc(O)cc(-c3cc4c5c(nc(OC[C@@]67CCCN6C[C@H](F)C7)nc5c3F)N3CCOCCC3CO4)c12 (some centres unmarked) [Compound 4] | – | – | – | – | – | > 1000 nM | 32.7 nM | > 1000 nM | 14.7 nM |
| C#Cc1c(F)ccc2cc(O)cc(-c3nc4c5c(nc(OC[C@@]67CCCN6C[C@H](F)C7)nc5c3F)N3CCCCC[C@H]3CO4)c12 [Compound 20] | 10.2 nM | 1.49 nM | 1.23 nM | 2.01 nM | 0.691 nM | – | – | – | – |
| C#Cc1c(F)ccc2cc(O)cc(-c3nc4c5c(nc(OC[C@@]67CCCN6C[C@H](F)C7)nc5c3F)N3CCCOC[C@H]3CO4)c12 [Compound 5] | – | 0.819 nM | 0.466 nM | 1.03 nM | 0.525 nM | – | – | – | – |
| C#Cc1c(F)ccc2cc(O)cc(-c3nc4c5c(nc(OC[C@@]67CCCN6C[C@H](F)C7)nc5c3F)N3CCOCC3CO4)c12 (some centres unmarked) [Compound 11] | 346 nM | 25 nM | 31.8 nM | 16.8 nM | 26.3 nM | – | – | – | – |
| C#Cc1c(F)ccc2cc(O)cc(-c3cc4c5c(nc(OC[C@@]67CCCN6C[C@H](F)C7)nc5c3F)N3CCOCCC3CO4)c12 (some centres unmarked) [Compound 1] | 987 nM | 100 nM | 326 nM | 38.2 nM | 16.2 nM | – | – | – | – |
| C#Cc1c(F)ccc2cc(O)cc(-c3nc4c5c(nc(OC[C@@]67CCCN6C[C@H](F)C7)nc5c3F)N3CCOCC3CCO4)c12 (some centres unmarked) [Compound 12] | 810 nM | 91.2 nM | 83.4 nM | 128 nM | 48 nM | – | – | – | – |
| C#Cc1c(F)ccc2cc(O)cc(-c3nc4c5c(nc(OC[C@@]67CCCN6C[C@H](F)C7)nc5c3F)N3CCCOC[C@H]3CN4C)c12 [Compound 9] | 64.4 nM | 7.67 nM | 6.8 nM | 18.6 nM | 6.58 nM | – | – | – | – |
